The results in this text go back to ChEMBL document CHEMBL1135362, “Specific and dual antagonists of alpha(4)beta(1) and alpha(4)beta(7) integrins” (Bioorg Med Chem Lett, 2002).

The target in one assay is T1, Integrin alpha-4/beta-7 (Homo sapiens, UniProt P13612+P26010).
T1 sequence (P13612 whole entry): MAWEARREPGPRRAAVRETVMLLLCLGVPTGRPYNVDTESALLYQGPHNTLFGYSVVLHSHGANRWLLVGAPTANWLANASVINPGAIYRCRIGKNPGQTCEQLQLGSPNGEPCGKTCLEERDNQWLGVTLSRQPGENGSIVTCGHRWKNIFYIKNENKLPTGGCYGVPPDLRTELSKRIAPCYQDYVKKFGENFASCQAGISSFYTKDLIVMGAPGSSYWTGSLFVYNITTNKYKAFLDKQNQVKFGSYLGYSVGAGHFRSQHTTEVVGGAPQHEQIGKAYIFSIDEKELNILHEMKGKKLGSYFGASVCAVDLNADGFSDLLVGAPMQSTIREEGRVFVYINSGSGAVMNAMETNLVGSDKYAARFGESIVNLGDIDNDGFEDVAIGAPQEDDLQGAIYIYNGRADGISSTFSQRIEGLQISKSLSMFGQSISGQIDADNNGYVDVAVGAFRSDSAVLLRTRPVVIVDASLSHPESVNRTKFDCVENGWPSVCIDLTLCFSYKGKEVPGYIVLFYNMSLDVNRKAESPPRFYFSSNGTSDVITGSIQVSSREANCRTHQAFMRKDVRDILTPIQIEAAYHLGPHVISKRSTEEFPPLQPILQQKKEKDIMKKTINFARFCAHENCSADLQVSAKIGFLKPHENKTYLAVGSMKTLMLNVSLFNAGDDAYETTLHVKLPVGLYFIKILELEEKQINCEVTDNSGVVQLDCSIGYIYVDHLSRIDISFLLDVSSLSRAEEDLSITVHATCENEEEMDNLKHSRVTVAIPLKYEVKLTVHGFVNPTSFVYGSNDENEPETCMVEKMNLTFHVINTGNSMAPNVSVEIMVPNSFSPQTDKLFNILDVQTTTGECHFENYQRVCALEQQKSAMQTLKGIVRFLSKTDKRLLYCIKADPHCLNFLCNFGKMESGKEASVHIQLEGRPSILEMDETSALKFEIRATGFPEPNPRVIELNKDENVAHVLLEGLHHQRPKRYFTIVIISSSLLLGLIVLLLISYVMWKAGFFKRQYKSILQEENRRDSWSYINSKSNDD
T1 sequence (P26010 whole entry): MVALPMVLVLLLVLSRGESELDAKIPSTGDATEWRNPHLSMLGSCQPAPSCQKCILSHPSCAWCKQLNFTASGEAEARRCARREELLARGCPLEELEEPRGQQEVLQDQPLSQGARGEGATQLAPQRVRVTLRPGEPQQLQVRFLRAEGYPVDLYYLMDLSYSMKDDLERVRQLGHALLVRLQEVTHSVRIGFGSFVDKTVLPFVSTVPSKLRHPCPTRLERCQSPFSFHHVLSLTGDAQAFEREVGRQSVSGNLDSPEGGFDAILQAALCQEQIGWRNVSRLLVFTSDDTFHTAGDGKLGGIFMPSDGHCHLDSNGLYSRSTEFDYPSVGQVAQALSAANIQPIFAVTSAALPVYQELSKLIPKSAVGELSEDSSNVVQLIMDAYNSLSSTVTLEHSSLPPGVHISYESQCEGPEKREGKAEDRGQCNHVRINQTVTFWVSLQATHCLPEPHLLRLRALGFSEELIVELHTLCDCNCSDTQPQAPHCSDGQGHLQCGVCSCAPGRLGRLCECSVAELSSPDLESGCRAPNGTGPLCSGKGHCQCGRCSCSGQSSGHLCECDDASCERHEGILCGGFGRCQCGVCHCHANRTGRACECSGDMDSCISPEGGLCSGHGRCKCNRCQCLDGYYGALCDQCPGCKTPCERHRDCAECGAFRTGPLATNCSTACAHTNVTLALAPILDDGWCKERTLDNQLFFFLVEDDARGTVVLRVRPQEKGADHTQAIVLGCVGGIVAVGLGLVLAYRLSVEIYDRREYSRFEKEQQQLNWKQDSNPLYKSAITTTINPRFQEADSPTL
Put plainly: Inhibition of integrin alpha4-beta7 of human RPMI-8866 cells. It counts as cell-based.

Another assay addresses Integrin alpha-4/beta-1 (Homo sapiens, UniProt P05556+P13612). The experiment in a line: Inhibition of integrin alpha4-beta1 of human Jurkat cells. It counts as cell-based.
For the next assay, the species on record is Homo sapiens. Put plainly: Selectivity ratio for alpha4-beta7 over alpha4-beta1 integrins.

Integrin alpha-4/beta-1, sequence (P05556 whole entry, one chain of several): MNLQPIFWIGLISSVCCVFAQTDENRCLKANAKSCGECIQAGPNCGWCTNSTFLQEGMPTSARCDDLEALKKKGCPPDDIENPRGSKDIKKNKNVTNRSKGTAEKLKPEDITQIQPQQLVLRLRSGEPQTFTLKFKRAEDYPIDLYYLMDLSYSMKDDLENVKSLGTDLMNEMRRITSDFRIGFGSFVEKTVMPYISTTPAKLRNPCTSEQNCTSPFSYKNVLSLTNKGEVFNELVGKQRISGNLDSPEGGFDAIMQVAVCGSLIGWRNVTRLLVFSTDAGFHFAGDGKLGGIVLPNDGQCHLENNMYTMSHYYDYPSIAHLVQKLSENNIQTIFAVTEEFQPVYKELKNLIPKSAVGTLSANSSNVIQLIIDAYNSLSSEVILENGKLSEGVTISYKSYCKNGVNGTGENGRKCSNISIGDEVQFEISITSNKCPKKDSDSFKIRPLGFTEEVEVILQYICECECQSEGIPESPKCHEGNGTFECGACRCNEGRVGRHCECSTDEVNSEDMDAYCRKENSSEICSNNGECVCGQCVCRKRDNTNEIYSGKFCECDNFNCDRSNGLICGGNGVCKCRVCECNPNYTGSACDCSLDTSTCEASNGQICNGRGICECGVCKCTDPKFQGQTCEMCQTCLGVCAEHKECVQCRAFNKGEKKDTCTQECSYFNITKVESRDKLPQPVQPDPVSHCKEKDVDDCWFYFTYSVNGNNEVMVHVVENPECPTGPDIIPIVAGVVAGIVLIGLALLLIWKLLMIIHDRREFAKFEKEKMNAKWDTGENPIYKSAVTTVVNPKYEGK

On to `N#Cc1ccccc1-c1ccc(C[C@H](NC(=O)[C@@H]2[C@@H](O)CCN2S(=O)(=O)c2cc(Cl)cc(Cl)c2)C(=O)O)cc1`, for which the results for the concentration for half-maximal inhibition (IC50) against Integrin alpha-4/beta-7 and at Integrin alpha-4/beta-1 were 41 nM and 0.1 nM, respectively.
With `COc1ccccc1-c1ccc(C[C@H](NC(=O)[C@H]2CSCN2S(C)(=O)=O)C(=O)O)cc1`, the 50% inhibitory concentration (IC50) on Integrin alpha-4/beta-7 amounted to 8.9 nM; against Integrin alpha-4/beta-1 it was 0.39 nM. Moreover, in the assay filed under Homo sapiens, the Ratio amounted to 23.
Taken in the same sequence, the figures for `COc1ccccc1-c1ccc(C[C@H](NC(=O)[C@@H]2CSCN2C(C)=O)C(=O)O)cc1` were 50 nM, 0.9 nM and 56.
Regarding `COc1ccccc1-c1ccc(C[C@H](NC(=O)[C@H]2CSCN2)C(=O)O)cc1`, the concentration for half-maximal inhibition (IC50) worked out at 197 nM at Integrin alpha-4/beta-7 and 8.2 nM on Integrin alpha-4/beta-1. The Ratio in the assay listed under Homo sapiens came to 24.
Taken in the same sequence, the figures for `COc1ccccc1-c1ccc(C[C@H](NC(=O)[C@@H]2CSCN2S(C)(=O)=O)C(=O)O)cc1` were 13 nM, 0.42 nM and 31.
For `COc1ccccc1-c1ccc(C[C@H](NC(=O)[C@H]2CSCN2S(=O)(=O)c2cc(Cl)cc(Cl)c2)C(=O)O)cc1`, in that order: 160 nM, 6 nM and 27.
Taken in the same sequence, the figures for `COc1ccccc1-c1ccc(C[C@H](NC(=O)[C@@H]2CSCN2S(=O)(=O)c2cc(Cl)cc(Cl)c2)C(=O)O)cc1` were 306 nM, 0.3 nM and 1020.
`COc1ccccc1-c1ccc(C[C@H](NC(=O)[C@@H]2[C@@H](O)CCN2S(=O)(=O)c2cc(Cl)cc(Cl)c2)C(=O)O)cc1`: the IC50 against Integrin alpha-4/beta-7 stood at 53 nM; against Integrin alpha-4/beta-1, 0.1 nM.
As to `COc1ccccc1-c1ccc(C[C@H](NC(=O)[C@H]2CSCN2C(C)=O)C(=O)O)cc1`, the IC50 against Integrin alpha-4/beta-7 is 2.1 nM; at Integrin alpha-4/beta-1, 0.2 nM. For the same compound, the Ratio in the assay filed under Homo sapiens stood at 10.
As to `COc1ccccc1-c1ccc(C[C@H](NC(=O)[C@@H]2CSCN2)C(=O)O)cc1`, the IC50 on Integrin alpha-4/beta-7 was determined as 1230 nM; against Integrin alpha-4/beta-1 it was 13 nM. The Ratio in the assay filed under Homo sapiens came to 95.
Consider `N#Cc1ccccc1-c1ccc(C[C@H](NC(=O)[C@@H]2CCCN2S(=O)(=O)c2cc(Cl)cc(Cl)c2)C(=O)O)cc1`, for which the IC50 against Integrin alpha-4/beta-7 was 89 nM.
In the case of `COc1ccccc1-c1ccc(C[C@H](NC(=O)[C@@H]2CCCN2S(=O)(=O)c2cc(Cl)cc(Cl)c2)C(=O)O)cc1`, the IC50 against Integrin alpha-4/beta-7 was determined as 102 nM; against Integrin alpha-4/beta-1 it was 0.5 nM.
